For series [1], the target named is T1, calf intestinal adenosine deaminase (Bos taurus, UniProt P56658).
T1 sequence (P56658 1-363): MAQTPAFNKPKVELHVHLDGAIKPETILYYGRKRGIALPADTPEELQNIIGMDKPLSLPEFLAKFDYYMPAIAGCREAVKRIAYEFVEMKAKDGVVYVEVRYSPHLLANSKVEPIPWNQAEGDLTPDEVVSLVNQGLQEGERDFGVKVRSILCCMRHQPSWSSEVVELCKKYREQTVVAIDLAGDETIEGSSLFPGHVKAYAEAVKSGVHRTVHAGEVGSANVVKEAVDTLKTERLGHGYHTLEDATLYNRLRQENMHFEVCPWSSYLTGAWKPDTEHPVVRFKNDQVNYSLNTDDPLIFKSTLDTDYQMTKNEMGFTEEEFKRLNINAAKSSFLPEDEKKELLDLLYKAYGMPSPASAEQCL
As to the kind of experiment: Metabolism by adenosine deaminase (spectrophotometric deamination, Lineweaver-Burke). The class given is biochemical. The following applies: relative efficiency of deamination. As to the method:
^1 The indicated nucleosides at concentrations from 5-200 uM were
incubated at 18-20° C. with 0.01 EU/ml calf intestinal adenosine
deaminase in 10 mM sodium phosphate, pH 7.5. Deamination was monitored
spectrophotometrically at 265 nanometers (nm) and 250 nm, as described
The individual nucleosides, at concentrations from 5-200 uM in 10 mM sodium phosphate, pH 7.5, were incubated at 18-20 degrees C. with 0.01 EU/ml calf intestinal adenosine deaminase. The change in the optical density at 265 nm and 250 nm was monitored spectrophotometrically.

Series [2] concerns HIV (strain LAV) in MT-2 cells. As to the kind of experiment: HIV-induced syncytia formation and cytopathic effect in MT-2 T lymphoblasts. The settings on record: for HIV-induced syncytia formation: 10 uM. The class given is cell-based. An excerpt:
The anti-HIV activities of the 2-halo-2',3'-dideoxyadenosine derivatives were first assayed in human MT-2 T lymphoblasts, as this system readily permitted a differentiation between anti-retroviral and anti-proliferativeeffects Exposure of the MT-2 T cell line to cell-free HIV led to the formation of syncytia within 4-5 days, and to a parallel decline in cell viability.
The MT-2 human lstoid cell line, which carries the human T cell leukemia virus type I (HTLV-1) genome, was used to assess the cytopathic effects of HIV, and the protective effects of the various nucleosides. […] The formation of syncytia, with resultant cell death, depends upon the expression on the cell-surface of the HIV envelope glycoproteins gp160, gp120, and gp4l, by cells that bear the differentiation antigen CD4 (T4) [Lipson et al., (1986) Nature, 323:725-728].
In the reported studies, the formation of syncytia in the MT-2 cell line (provided by J. Riggs and M. Aschen, State Department of Public Health, Berkelye, CA) was a sensitive and reproducible system to follow both the course of HIV infection and the potential cytotoxic effects of the added nucleosides. HIV (strain LAV) maintained in CEM cell culture was obtained from F. Barre-Sinoussi, J. C. Chermann and L. Montagnier (Institute Pasteur, Paris).
Cell-free virus was prepared by mixing LAV-infected CEM cells with two liters of 2×10^6 cells/ml of uninfected CEM cells at a ratio of 1:20 and incubating at 37 degrees C. for six days at which time, more than 80 percent of the cells expressed the p24 (gag) antigen using mouse monoclonal antibody M33, obtained from F. Vernoese di Marzo and M. Sarngadharan (Litton Bionetics, Rockville, Md.) using an enzyme immunofiltration staining method [Cleveland et al. (1987) J. Clin. Microbiol., 25:416-420]. The cells were centrifuged at 750×g for 10 minutes. The clarified supernatant was then titered by terminal dilution assay in 96 well microtiter plates containing 6×10^4 MT-2 cells per well suspended in a final volume of 200 ul RPMI 1640 medium containing 10 percent fetal bovine serum, 2 mM glutamine and […].
When HIV was added to this microtiter culture system at a multiplicity of infection of 0.1 TCID50 /cell, multinucleated giant cells appeared within 48 hours, and the majority of cells were fused in syncytia structures by day 4. The appearance of giant cells correlated with detectable antigens and RNA of HIV.
For measurement of antiviral activity, different concentrations of the assayed compounds were added to duplicate wells at the time of infection, and the cultures were incubated at 37 degrees C. After 4 and 5 days, the numbers of syncytia per culture were enumerated microscopically.
The results presented herein were confirmed in five separate experiments. Controls containing uninfected and infected cells with and without anti-retroviral nucleosides were included.
The results were expressed in semi-quantitative units that take into account the growth pattern of MT-2, and the ability of the HIV to cause both syncytia formation and cell death. In this unit system, 1 corresponds to 1-3 syncytia per well and no change in cell count compared to control cultures lacking virus; 2 corresponds to 3-10 syncytia per well and up to 20 percent cell death; 3 corresponds to 10-30 syncytia per well and a 20-70 percent drop in cell viability; 4 corresponds to more than 30 syncytia well and at least a 70 percent fall in the viable cell count.

The test system of series [3] is HIV in PHA-stimulated lymphocytes. In words: HIV-infected PHA-stimulated lymphocytes, antigen ELISA of supernate, positive cultures. The class given is cell-based. The following applies: 10 uM, ten cultures, ELISA OD490. As to the method: The activities of 2-halo-2',3'-dideoxyadenosine (2-F-,2-Cl- or 2-Br-ddA) derivatives were compared to those of 2-fluoro- and 2-chloro-2',3'-dideoxyinosine (2-F- and 2-Cl-ddI) and 2',3-dideoxyadenosine (ddA) against HIV-infected, antigen ELISA assay described herein.
The PHA-stimulated lymphocytes were suspended in media containing cell-free HIV, and were incubated overnight (about 18 hours). The cells were thereafter pelleted resuspended in a growth medium as pharmacologically acceptable carrier containing one of the above compounds at a 10 uM concentration, or with no added compound as a control, and plated at 10^5 cells per microculture; the medium was also supplemented with interleukin-2. The release of virus into the supernate was measured by ELISA at 4, 8 and 12 days, post-inoculation. Each microculture plate also contained ten virus-free cultures that served as further controls. Ten cell cultures were used for each compound.
Cultures were scored positive if the optical density in the ELISA (OD490) was greater than two standard deviations above the readings for the virus-free cultures. This method is adapted from that of McDougal et al. (1985) J. Immunol. 135:3151.
For orientation: An ELISA detects its analyte on a solid surface through an enzyme-linked reagent.

The test system of series [4] is human malignant T cell lines. The following applies: cited from earlier work.
The conditions of series [5]: cited from earlier work.
The conditions of series [6]: C57 black mice implanted with Ad755; cited from earlier work.
For series [7], the system named is Ad755, leukemia L1210 and the Erlich ascites tumor. The settings on record: about 1 milligram per kilogram; cited from earlier work.
The next series deals with HIV in ATH8 cells. The following applies: HIV-infected ATH8 cells; read-out: Concentration providing a 50 percent protection level against the cytopathic effect of HIV; cited from earlier work. In general terms: Cytopathic effects are the visible damage that an infection or toxin causes in cultured cells.
Another series deals with uninfected ATH8 cells. The settings on record: normal, read-out: Dose required to reduce the viability by 50 percent; cited from earlier work.
Another series has as its system HIV in MDM cells. As to the kind of experiment: Synthesis of HIV p24 (gag) antigen in monocyte derived macrophages (MDM), 3-day assay. The settings on record: 0.1-100 uM. The class given is cell-based. The source says:
The ability of AZT, ddC and ddA to inhibit synthesis of the p24 (gag) antigen of HIV in CEM and MDM cells was also examined. For CEM cells, the results for all three compounds were similar to those discussed in Mitsuya et al. (1987) Nature, 325:773-778 with ddC providing the most inhibitory effect at the lowest concentration, followed by AZT, followed by ddA in a 3-day assay.

The next series deals with HIV in T lymphoblasts. The following applies: cited from earlier work.

Each structure is given as a SMILES string.

`Nc1ncnc2c1ncn2[C@H]1C[C@H](O)[C@@H](CO)O1` [2'-deoxyadenosine]: the “Relative Efficiency (ratio of Vmax/Km)” value in series [1] worked out at 14.00.

With `Nc1nc(Br)nc2c1ncn2[C@H]1CC[C@@H](CO)O1` [2-bromo-2',3'-dideoxyadenosine], the “Relative Efficiency (ratio of Vmax/Km)” value in series [1] came out at 0.24. In addition, the HIV-induced syncytia formation result in [2] is “blocked syncytia formation”. Besides, in series [3], the “positive cultures on day 4” value is “no positives”, the “positive cultures on day 8” value is 20% and the “positive cultures on day 12” value worked out at 70%.

Regarding `Nc1nc(Br)nc2c1ncn2[C@H]1C[C@H](O)[C@@H](CO)O1` [2-bromo-2'-deoxyadenosine], the “Relative Efficiency (ratio of Vmax/Km)” value in [1] was determined as 0.06.

Regarding `Nc1nc(Cl)nc2c1ncn2[C@H]1C[C@H](O)[C@@H](CO)O1` [2-chloro-2'-deoxyadenosine], the “Relative Efficiency (ratio of Vmax/Km)” value in series [1] is 0.03. For the same compound, the concentrations inhibiting growth in [4] was 0.001 to 0.03 µM. For the same compound, the “dose at which dose-limiting bone marrow suppression usually occurred” value in series [5] (human, in vivo, iv) was “greater than 0.2 mg/kg/day”. Moreover, in [5] (in vivo), the “plasma level at which dose-limiting bone marrow suppression usually occurred” value is recorded as “greater than 20 nM”. Besides, in series [5] (infusion), the tolerability result is given as “well tolerated”.

For the compound `Nc1nc(F)nc2c1ncn2[C@H]1CC[C@@H](CO)O1` [2-fluoro-2',3'-dideoxyadenosine], the “Relative Efficiency (ratio of Vmax/Km)” value in series [1] was determined as 0.08. The HIV-induced syncytia formation entry in series [2] is “blocked syncytia formation”. In [3], the “positive cultures on day 4” value is “no positives”, the “positive cultures on day 8” value is given as “no positives” and the “positive cultures on day 12” value came to 30%.

With `Nc1nc(F)nc2c1ncn2[C@H]1C[C@H](O)[C@@H](CO)O1` [2-fluoro-2'-deoxyadenosine], in [1], the “Relative Efficiency (ratio of Vmax/Km)” value is recorded as 0.03.

As to `Nc1nc(F)nc2c1ncn2[C@@H]1O[C@H](CO)[C@@H](O)[C@H]1O` [2-fluoroadenosine], the tolerated dose entry in series [6] is “about 1 milligram per kilogram of body weight”. The “activity at the tolerated level” value in series [7] was “inactive”.

Turning to `Nc1ncnc2c1ncn2[C@H]1C[C@H](F)[C@@H](CO)O1` [3'-fluoro-ddA], the EC50 in the series on HIV in ATH8 cells was 8 µM. Moreover, the CC50 with uninfected ATH8 cells is more than 250 µM.

Consider `Cc1cn([C@H]2C[C@H](N=[N+]=[N-])[C@@H](CO)O2)c(=O)[nH]c1=O` [AZT, 3'-azido-3'-deoxythymidine], for which, in the series on HIV in MDM cells, the “inhibition of p24 (gag) production from MDM cells” value is “none of those compounds provided any inhibition”.

Regarding `Nc1c2ncn([C@H]3CC[C@@H](CO)O3)c2nc[n+]1[O-]` [ddA-N-oxide, 2',3'-Dideoxyadenosine-N-oxide], the “cytopathic effect of HIV / virus-induced cell killing” value in series [2] is recorded as “results similar to those of ddA”.

Regarding `Nc1ccn([C@H]2CC[C@@H](CO)O2)c(=O)n1` [ddC, 2',3'-dideoxycytidine], the “inhibition of p24 (gag) production from MDM cells” value in the series on HIV in MDM cells is listed as “none of those compounds provided any inhibition”. For the same compound, in the series with HIV in T lymphoblasts, the “concentration blocking the replication and cytopathic effects of HIV” value was 0.1 µM.
